Entries after “also recorded” stand apart in the source; their conditions may differ.
Tests used:
[1] = tested on: melon (Cucumis melo) fruit acid form alpha-galactosidase; assay: Substrate kinetics (Lineweaver-Burk) of acid alpha-galactosidase; format: biochemical, muskmelon (Cucumis melo L. cv C-8)
Method: For routine analysis and monitoring the activity in the purification steps, alpha-galactosidase was assayed as described by Smart and Pharr (“Characterization of alpha-galactosidase from cucumber leaves”, Plant Physiology, 66:731-734, 1980), using p-nitrophenyl alpha-galactoside (pNPG) as substrate. […] The reaction was terminated after 10 min by adding 1 ml of 5% (w/v) Na2CO3 and activity expressed as nmol nitrophenol per min as measured at 410 nm. […] The assay was started by adding 50 μl enzyme preparation at 35 C and terminated after 10 to 20 min by 2 min boiling. […] For the partial purification of the acid form of alpha-galactosidase the fractions active at pH 5.5 were pooled and concentrated by reverse dialysis against solid sucrose. […] The active fractions were then desalted by dialysis against buffer A for 12 hours with two changes of the buffer. This enzyme fraction was used for the characterization of the acidic form of alpha-galactosidase. […] The substrate specificity of the alpha-galactosidases was tested with pNPG, stachyose, raffinose, melibiose or guar gum (Sigma).

[2] = tested on: Cucurbita pepo leaf alkaline alpha-galactosidase ("LIV" enzyme); settings: Gaudreault and Webb; alkaline form; cited from earlier work
[3] = target: T1, melon (Cucumis melo) fruit alkaline alpha-galactosidase Form I (Cucumis melo, UniProt Q84NI7); assay: Inhibition of alkaline alpha-galactosidase Form I by alternative substrate (galactose release); format: biochemical, muskmelon (Cucumis melo L. cv C-8); design: native 84 kDa, denatured 79 kDa; assayed at pH 7.5
T1 sequence (Q84NI7 1-754): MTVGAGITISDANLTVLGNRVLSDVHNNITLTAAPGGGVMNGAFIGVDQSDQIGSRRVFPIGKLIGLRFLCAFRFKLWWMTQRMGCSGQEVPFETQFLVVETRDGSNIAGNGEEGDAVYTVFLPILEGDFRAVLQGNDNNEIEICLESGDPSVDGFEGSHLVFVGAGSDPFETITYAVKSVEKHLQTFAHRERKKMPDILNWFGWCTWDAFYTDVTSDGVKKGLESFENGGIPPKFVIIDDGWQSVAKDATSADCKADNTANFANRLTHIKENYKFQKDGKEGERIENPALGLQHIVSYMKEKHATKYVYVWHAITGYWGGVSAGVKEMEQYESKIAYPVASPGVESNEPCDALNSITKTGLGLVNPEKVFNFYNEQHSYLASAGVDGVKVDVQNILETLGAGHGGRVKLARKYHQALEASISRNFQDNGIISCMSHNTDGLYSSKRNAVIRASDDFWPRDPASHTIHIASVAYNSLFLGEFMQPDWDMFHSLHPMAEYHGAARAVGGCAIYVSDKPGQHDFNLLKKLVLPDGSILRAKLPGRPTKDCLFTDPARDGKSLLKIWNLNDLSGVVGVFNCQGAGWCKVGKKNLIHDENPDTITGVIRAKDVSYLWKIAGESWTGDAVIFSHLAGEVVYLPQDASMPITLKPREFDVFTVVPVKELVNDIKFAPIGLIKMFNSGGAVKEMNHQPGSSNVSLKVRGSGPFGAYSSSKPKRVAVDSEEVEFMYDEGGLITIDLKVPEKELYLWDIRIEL
Method: For routine analysis and monitoring the activity in the purification steps, alpha-galactosidase was assayed as described by Smart and Pharr (“Characterization of alpha-galactosidase from cucumber leaves”, Plant Physiology, 66:731-734, 1980), using p-nitrophenyl alpha-galactoside (pNPG) as substrate. Reaction was initiated by adding 50 μl enzyme aliquot to either 200 μl 100 mM pH 5.5 McIlvaine buffer or 100 mM pH 7.5 HEPES buffer, containing 5 mM pNPG at 35 C. The reaction was terminated after 10 min by adding 1 ml of 5% (w/v) Na2CO3 and activity expressed as nmol nitrophenol per min as measured at 410 nm. […] The assay was started by adding 50 μl enzyme preparation at 35 C and terminated after 10 to 20 min by 2 min boiling.

Structure (SMILES): OC[C@H]1O[C@H](OC[C@H]2O[C@H](OC[C@H]3O[C@H](O[C@]4(CO)O[C@H](CO)[C@@H](O)[C@@H]4O)[C@H](O)[C@@H](O)[C@@H]3O)[C@H](O)[C@@H](O)[C@H]2O)[C@H](O)[C@@H](O)[C@H]1O [Stachyose, O-alpha-D-galactopyranosyl-(1-6)-O-alpha-D-galactopyranosyl-(1-6)-O-alpha-D-glucopyranosyl-(1-2)-beta-D-fructofuranoside]
- Vmax/Km ratio [1]: 0.02
- Km ([1]; Lineweaver-Burk): 10.5 mM
- Vmax ([1]; Lineweaver-Burk): 0.23 μmol mg^−1 protein min^−1
- Km [2]: 4.5 mM
- inhibition by excess stachyose (free galactose release, in words) [3]: negligible; also recorded: does not decrease

From patent US7514254B2, “Plant-derived alkaline alpha-galactosidase” (The State of Israel, Ministry of Agriculture & Rural …, priority 1998, dated 2009)
